Results taken from patent publication US20230404998A1, “Combination Therapies for Treating Cancer” (ASCENTAGE PHARMA (SUZHOU) CO., LTD., priority 2020, published 2023).
Marks after values point to notes of the source that are not given here.

What was measured:
Set-up in all cases: species or system mouse
Details in all cases: ABL001 60 mg/kg, Ponatinib 20 mg/kg, HQP1351 20 mg/kg
[1] = test system: T315I orthotopic tumor model; experiment: In vivo efficacy, T315I orthotopic tumor model
Procedure: (§1) In vivo efficacy was evaluated using the syngeneic mouse model derived from BaF3 cells with T315I and/or compound mutations. Tumor models were established by intravenously injecting tumor cells (1×10^5/mouse) into the caudal vein under sterile conditions. Mice were randomized into control and treatment groups with 8-10 mice per group and start the treatment from the second day post inoculation. The animal body weights were measured twice a week. The antitumor activity curves of test articles were plotted with the treatment time (day) on the X-axis, and corresponding survival rate on the Y-axis. A Log-rank (Mental-cox) test was employed to analyze the statistical significance of any difference between the treatment group and the control group. Prism version 7 (GraphPad Software Inc., San Diego, CA) was used for all statistical analysis and for graphic presentation.

[2] = test system: Y253H/T315I orthotopic tumor model; experiment: In vivo efficacy, Y253H/T315I orthotopic tumor model
Procedure: as §1

[3] = test system: E255V/T315I orthotopic tumor model; experiment: In vivo efficacy, E255V/T315I orthotopic tumor model
Procedure: as §1

[4] = test system: F317L/T315I orthotopic tumor model; experiment: In vivo efficacy, F317L/T315I orthotopic tumor model
Procedure: as §1

| Structure (SMILES) | Median survival [1] | Survival prolongation (%) [1] | Survive/Total @ D43 [1] | Median survival [2] | Survival prolongation (%) [2] | Survive/Total @ 24 [2] | Median survival [3] | Survival prolongation (%) [3] | Survive/Total @ D26 [3] | Median survival [4] | Survival prolongation (%) [4] | Survive/Total @ 24 [4] |
| --- | --- | --- | --- | --- | --- | --- | --- | --- | --- | --- | --- | --- |
| O=C(Nc1ccc(OC(F)(F)Cl)cc1)c1cnc(N2CC[C@@H](O)C2)c(-c2cc[nH]n2)c1 [ABL001, asciminib] | 24.5**** | 16.67% | 0/10 | 21.0*** | 23.53% | 0/8 | 27.0**** | 28.57% | 0/10 | 18.0 | 2.86% | 0/8 |
| Cc1ccc(C(=O)Nc2ccc(CN3CCN(C)CC3)c(C(F)(F)F)c2)cc1C#Cc1cnc2cccnn12 [Ponatinib] | 27.0**** | 28.57% | 0/10 | 20.0** | 17.65% | 0/8 | 24.5**** | 16.67% | 0/10 | 27.0**** | 54.29% | 1/8 |
